Reference: patent publication US5292742A, “Angiotensin II receptor blocking 2,3,6 substituted quinazolinones” (American Cyanamid Company, priority 1993, dated 1994)
Where “and” joins values, the source holds several entries; their conditions need not be identical. Equal entries are not always repeated.

Tested on: angiotensin II (AII) vasopressor response
Assay: AII challenge: inhibition of angiotensin II vasopressor response in conscious spontaneously hypertensive rats
Type: in vivo, rat (Okamoto-Aoki SHR)
Settings: 3 mg/kg IV; for % Inhibition (angiotensin blockage) of AII vasopressor response / Average Change (increase in systolic blood pressure after AII): SHR n = 2; for Change (increase in systolic blood pressure after AII), individual rat / Response After AII (systolic blood pressure), individual rat / Control Before AII (systolic blood pressure), individual rat: individual SHR
Source text: By administering a compound of this invention to a rat, and then challenging with angiotensin II, a blockage of the vasopressor response is realized.
Conscious Male Okamoto-Aoki SHR, 16-20 weeks old, weighing approximately 330 g are purchased from Charles River Labs (Wilmington, Mass.). Conscious rats are restrained in a supine position with elastic tape. The area at the base of the tail is locally anesthetized by subcutaneous infiltration with 2% procaine. The ventral caudal artery and vein are isolated, and a cannula made of polyethylene (PE) 10-20 tubing (fused together by heat) is passed into the lower abdominal aorta and vena cava, respectively. The cannula is secured, heparinized (1,000 I.U./ml), sealed and the wound is closed. The animals are placed in plastio restraininq cages in an upright position. The cannula is attached to a Statham P23Db pressure transducer, and pulsatile blood pressure is recorded to 10-15 minutes with a Gould Brush recorder. (Chan et al., (Drug Development Res., 18:75-94, 1989).
Angiotensin II (human sequence, Sigma Chem. Co., St. Louis, Mo.) of 0.05 and 0.1 mcg/kg i.v. is injected into all rats (predosing response). Then a test compound, vehicle or a known angiotensin II antagonist is administered i.v., i.p. or orally to each set of rats. The two doses of angiotensin II are given to each rat again at 30, 60, 90, 120, 180, 240 and 300 minutes post dosing the compound or vehicle. The vasopressor response of angiotensin II is measured for the increase in systolic blood pressure in mmHg. The percentage of antagonism or blockade of the vasopressor response of angiotensin II by a compound is calculated using the vasopressor response (increase in systolic blood pressure) of angiotensin II of each rat predosing the compound as 100%. A compound is considered active if at 30 mg/kg i.v. it antagonized at least 50% of the response.

[1] = AII 0.05 mcg/kg IV, 30 min post dose
[2] = AII 0.05 mcg/kg IV, 60 min post dose
[3] = AII 0.05 mcg/kg IV, 90 min post dose
[4] = AII 0.05 mcg/kg IV, 120 min post dose
[5] = AII 0.05 mcg/kg IV, 180 min post dose
[6] = AII 0.05 mcg/kg IV, 240 min post dose
[7] = AII 0.05 mcg/kg IV, 300 min post dose
[8] = AII 0.1 mcg/kg IV, 30 min post dose
[9] = AII 0.1 mcg/kg IV, 60 min post dose
[10] = AII 0.1 mcg/kg IV, 90 min post dose
[11] = AII 0.1 mcg/kg IV, 120 min post dose
[12] = AII 0.1 mcg/kg IV, 180 min post dose
[13] = AII 0.1 mcg/kg IV, 240 min post dose
[14] = AII 0.1 mcg/kg IV, 300 min post dose

For `CCCCc1nc2ccc(C3=NN4CCCC4C3)cc2c(=O)n1Cc1ccc(-c2ccccc2-c2nnn[nH]2)cc1` (stereo not shown) [Example 10, 2-Butyl-6-(3a,4,5,6-tetrahydro-3H-pyrrolo[1,2-b]-pyrazol-2-yl)-3-[[2'-(1H-tetrazol-5-yl)[1,1'-biphenyl]-4-yl]methyl]-4(3H)-quinazolinone], the “% Inhibition (angiotensin blockage) of AII vasopressor response” value (“% Inhibition (angiotensin blockage)” for short) [1] was 61%, the “Average Change (increase in systolic blood pressure after AII)” value [1] was 13.5 mmHg and the “Change (increase in systolic blood pressure after AII), individual rat” value [1] was 12 mmHg and 15 mmHg. The “% Inhibition (angiotensin blockage)” value [2] was 7%, the “Average Change (increase in systolic blood pressure after AII)” value [2] was 32.5 mmHg and the “Change (increase in systolic blood pressure after AII), individual rat” value [2] was 30 mmHg and 35 mmHg. The “% Inhibition (angiotensin blockage)” value [3] was 43%, the “Average Change (increase in systolic blood pressure after AII)” value [3] was 20 mmHg and the “Change (increase in systolic blood pressure after AII), individual rat” value [3] was 30 mmHg and 10 mmHg. For the same compound, the “% Inhibition (angiotensin blockage)” value [4] was 43%, the “Average Change (increase in systolic blood pressure after AII)” value [4] was 20 mmHg and the “Change (increase in systolic blood pressure after AII), individual rat” value [4] was 25 mmHg and 15 mmHg. For the same compound, the “% Inhibition (angiotensin blockage)” value [5] was 36%, the “Average Change (increase in systolic blood pressure after AII)” value [5] was 22.5 mmHg and the “Change (increase in systolic blood pressure after AII), individual rat” value [5] was 25 mmHg and 20 mmHg. For the same compound, the “% Inhibition (angiotensin blockage)” value [6] was 50%, the “Average Change (increase in systolic blood pressure after AII)” value [6] was 17.5 mmHg and the “Change (increase in systolic blood pressure after AII), individual rat” value [6] was 20 mmHg and 15 mmHg. For the same compound, the “% Inhibition (angiotensin blockage)” value [7] was 7%, the “Average Change (increase in systolic blood pressure after AII)” value [7] was 32.5 mmHg and the “Change (increase in systolic blood pressure after AII), individual rat” value [7] was 35 mmHg and 30 mmHg. The “% Inhibition (angiotensin blockage)” value [8] was 55%, the “Average Change (increase in systolic blood pressure after AII)” value [8] was 22.5 mmHg and the “Change (increase in systolic blood pressure after AII), individual rat” value [8] was 20 mmHg and 25 mmHg. The “% Inhibition (angiotensin blockage)” value [9] was 55%, the “Average Change (increase in systolic blood pressure after AII)” value [9] was 22.5 mmHg and the “Change (increase in systolic blood pressure after AII), individual rat” value [9] was 25 mmHg and 20 mmHg. The “% Inhibition (angiotensin blockage)” value [10] was 50%, the “Average Change (increase in systolic blood pressure after AII)” value [10] was 25 mmHg and the “Change (increase in systolic blood pressure after AII), individual rat” value [10] was 25 mmHg. For the same compound, the “% Inhibition (angiotensin blockage)” value [11] was 50%, the “Average Change (increase in systolic blood pressure after AII)” value [11] was 25 mmHg and the “Change (increase in systolic blood pressure after AII), individual rat” value [11] was 30 mmHg and 20 mmHg. The “% Inhibition (angiotensin blockage)” value [12] was 45%, the “Average Change (increase in systolic blood pressure after AII)” value [12] was 27.5 mmHg and the “Change (increase in systolic blood pressure after AII), individual rat” value [12] was 30 mmHg and 25 mmHg. For the same compound, the “% Inhibition (angiotensin blockage)” value [13] was 50%, the “Average Change (increase in systolic blood pressure after AII)” value [13] was 25 mmHg and the “Change (increase in systolic blood pressure after AII), individual rat” value [13] was 25 mmHg. For the same compound, the “% Inhibition (angiotensin blockage)” value [14] was 30%, the “Average Change (increase in systolic blood pressure after AII)” value [14] was 35 mmHg and the “Change (increase in systolic blood pressure after AII), individual rat” value [14] was 45 mmHg and 25 mmHg. The “Response After AII (systolic blood pressure), individual rat” value (“Response After AII” for short) (after AII 0.05 mcg/kg IV, 30 min post dose) was 242 mmHg and 255 mmHg, the “Response After AII” value (after AII 0.05 mcg/kg IV, 60 min post dose) was 255 mmHg and 270 mmHg and the “Response After AII” value (after AII 0.05 mcg/kg IV, 90 min post dose) was 255 mmHg and 250 mmHg. The “Response After AII” value (after AII 0.05 mcg/kg IV, 120 min post dose) was 250 mmHg and 230 mmHg, the “Response After AII” value (after AII 0.05 mcg/kg IV, 180 min post dose) was 235 mmHg and the “Response After AII” value (after AII 0.05 mcg/kg IV, 240 min post dose) was 230 mmHg and 235 mmHg. For the same compound, the “Response After AII” value (after AII 0.05 mcg/kg IV, 300 min post dose) was 250 mmHg and 245 mmHg, the “Response After AII” value (after AII 0.1 mcg/kg IV, 30 min post dose) was 250 mmHg and 260 mmHg and the “Response After AII” value (after AII 0.1 mcg/kg IV, 60 min post dose) was 255 mmHg and 260 mmHg. The “Response After AII” value (after AII 0.1 mcg/kg IV, 90 min post dose) was 265 mmHg and 260 mmHg, the “Response After AII” value (after AII 0.1 mcg/kg IV, 120 min post dose) was 265 mmHg and 240 mmHg and the “Response After AII” value (after AII 0.1 mcg/kg IV, 180 min post dose) was 245 mmHg and 250 mmHg. For the same compound, the “Response After AII” value (after AII 0.1 mcg/kg IV, 240 min post dose) was 250 mmHg and 240 mmHg, the “Response After AII” value (after AII 0.1 mcg/kg IV, 300 min post dose) was 255 mmHg and 250 mmHg and the “Control Before AII (systolic blood pressure), individual rat” value (from here on “Control Before AII”) (before AII 0.05 mcg/kg IV, 30 min post dose) was 230 mmHg and 240 mmHg. For the same compound, the “Control Before AII” value (before AII 0.05 mcg/kg IV, 60 min post dose) was 225 mmHg and 235 mmHg, the “Control Before AII” value (before AII 0.05 mcg/kg IV, 90 min post dose) was 225 mmHg and 240 mmHg and the “Control Before AII” value (before AII 0.05 mcg/kg IV, 120 min post dose) was 225 mmHg and 215 mmHg. The “Control Before AII” value (before AII 0.05 mcg/kg IV, 180 min post dose) was 210 mmHg and 215 mmHg, the “Control Before AII” value (before AII 0.05 mcg/kg IV, 240 min post dose) was 210 mmHg and 220 mmHg and the “Control Before AII” value (before AII 0.05 mcg/kg IV, 300 min post dose) was 215 mmHg. For the same compound, the “Control Before AII” value (before AII 0.1 mcg/kg IV, 30 min post dose) was 230 mmHg and 235 mmHg, the “Control Before AII” value (before AII 0.1 mcg/kg IV, 60 min post dose) was 230 mmHg and 240 mmHg and the “Control Before AII” value (before AII 0.1 mcg/kg IV, 90 min post dose) was 240 mmHg and 235 mmHg. For the same compound, the “Control Before AII” value (before AII 0.1 mcg/kg IV, 120 min post dose) was 235 mmHg and 220 mmHg, the “Control Before AII” value (before AII 0.1 mcg/kg IV, 180 min post dose) was 215 mmHg and 225 mmHg and the “Control Before AII” value (before AII 0.1 mcg/kg IV, 240 min post dose) was 225 mmHg and 215 mmHg. For the same compound, the “Control Before AII” value (before AII 0.1 mcg/kg IV, 300 min post dose) was 210 mmHg and 225 mmHg.
